Data from patent EP2974714B1, “USE OF DERIVATIVES WITH C-O-P BONDS IN PATIENTS WITH RENAL FAILURE” (LABORATORIS SANIFIT, S.L., priority 2013, dated 2014).

Tests used:
[1] = HAP crystallisation induction period (synergy with other treatments); assay type: physicochemical; conditions: drug effect simulated by modifying calcium and phosphate concentrations; control 8 minutes
Method: Experimental: hydroxyapatite (HAP) was crystallised by mixing appropriate concentrations of calcium and phosphate at pH 7.4. The effect of cinacalcet and sevelamer was simulated by suitably modifying the calcium and phosphate concentrations. The induction period (time required for HAP to begin to crystallise) was recorded as the analytical signal.

[2] = tested on: vit D-induced cardiovascular calcification in rats; experiment: Inhibition of vit D-induced (300,000 IU/kg x 3) cardiovascular calcification by s.c. IP6; assay type: in vivo, male SD rats; conditions: s.c.
Method: Experimental: male SD rats were divided into 9 groups. Two of said groups (sham and control groups) received s.c. saline 2 ml/kg; 6 groups received s.c. […] One group was treated with a s.c. Alzet pump loaded with 200 mg/ml IP6. Calcification was induced by oral administration of 300,000 IU/kg vitamin D (2 ml/kg) for 3 days starting on treatment day 3. […] The calcium content in heart, aorta and kidneys was determined after treatment for 7 days.

Row | SMILES | induction time (without IP6) [1] | dose causing the same effect as 10 mg/kg IP6 [2] | efficacy against calcification (in words) ([2]; at higher doses than IP6)
1 | C[C@@H](NCCCc1cccc(C(F)(F)F)c1)c1cccc2ccccc12 [cinacalcet, reference compound] | 14 min | – | –
2 | O=P([O-])([O-])OP(=O)([O-])[O-].[Na+].[Na+].[Na+].[Na+] [pyrophosphate, sodium pyrophosphate, reference compound] | – | 28 mg/kg | good efficacy
